From patent US11203571B2, “Sulfonamides as modulators of sodium channels” (VERTEX PHARMACEUTICALS INCORPORATED, priority 2013, dated 2021)

Legend:
human Nav1.8 = human Nav1.8 (Homo sapiens (Human), UniProt Q9Y5Y9); assay: E-VIPR optical membrane potential assay with electrical stimulation; format: cell-based; conditions: HEK cells expressing human Nav1.8
Source text: E-VIPR Optical Membrane Potential Assay Method with Electrical Stimulation
Sodium channels are voltage-dependent proteins that can be activated by inducing membrane voltage changes by applying electric fields. The electrical stimulation instrument and methods of use are described in Ion Channel Assay Methods PCT/US01/21652, herein incorporated by reference and are referred to as E-VIPR. The instrument comprises a microtiter plate handler, an optical system for exciting the coumarin dye while simultaneously recording the coumarin and oxonol emissions, a waveform generator, a current- or voltage-controlled amplifier, and a device for inserting electrodes in well. Under integrated computer control, this instrument passes user-programmed electrical stimulus protocols to cells within the wells of the microtiter plate.
24 hours before the assay on E-VIPR, HEK cells expressing human Nav1.8 were seeded in 384-well poly-lysine coated plates at 15,000-20,000 cells per well. HEK cells were grown in media (exact composition is specific to each cell type and NaV subtype) supplemented with 10% FBS (Fetal Bovine Serum, qualified; GibcoBRL #16140-071) and 1% Pen-Strep (Penicillin-Streptomycin; GibcoBRL #15140-122). Cells were grown in vented cap flasks, in 90% humidity and 5% CO2.
• 100 mg/mL Pluronic F-127 (Sigma #P2443), in dry DMSO • Compound Plates: 384-well round bottom plate, e.g. Corning 384-well Polypropylene Round Bottom #3656 • Cell Plates: 384-well tissue culture treated plate, e.g. Greiner #781091-1B • 10 mM DiSBAC6(3) (Aurora #00-100-010) in dry DMSO • 10 mM CC2-DMPE (Aurora #00-100-008) in dry DMSO • 200 mM ABSC1 in H20
Bath1 buffer: Glucose 10 mM (1.8 g/L), Magnesium Chloride (Anhydrous), 1 mM (0.095 g/L), Calcium Chloride, 2 mM (0.222 g/L), HEPES 10 mM (2.38 g/L), Potassium Chloride, 4.5 mM (0.335 g/L), Sodium Chloride 160 mM (9.35 g/L).
Hexyl Dye Solution: Bath1 Buffer+0.5% β-cyclodextrin (make this prior to use, Sigma #C4767), 8 μM CC2-DMPE+2.5 μM DiSBAC6(3). To make the solution Added volume of 10% Pluronic F127 stock equal to volumes of CC2-DMPE+DiSBAC6(3). The order of preparation was first mix Pluronic and CC2-DMPE, then added DiSBAC6(3) while vortexing, then added Bath1+β-Cyclodextrin.
1) Pre-spotted compounds (in neat DMSO) into compound plates. Vehicle control (neat DMSO), the positive control (20 mM DMSO stock tetracaine, 125 μM final in assay) and test compounds were added to each well at 160× desired final concentration in neat DMSO. Final compound plate volume was 80 μL (80-fold intermediate dilution from 1 μL DMSO spot; 160-fold final dilution after transfer to cell plate). Final DMSO concentration for all wells in assay was 0.625%.
2) Prepared Hexyl Dye Solution.
3) Prepared cell plates. On the day of the assay, medium was aspirated and cells were washed three times with 100 μL of Bath1 Solution, maintaining 25 μL residual volume in each well.
4) Dispensed 25 μL per well of Hexyl Dye Solution into cell plates. Incubated for 20-35 minutes at room temp or ambient conditions.
5) Dispensed 80 μL per well of Bath1 into compound plates. Acid Yellow-17 (1 mM) was added and Potassium Chloride was altered from 4.5 to 20 mM depending on the NaV subtype and assay sensitivity.
6) Washed cell plates three times with 100 μL per well of Bath1, leaving 25 μL of residual volume. Then transferred 25 uL per well from Compound Plates to Cell Plates. Incubated for 20-35 minutes at room temp/ambient condition.
7) Read Plate on E-VIPR. Used the current-controlled amplifier to deliver stimulation wave pulses for 10 seconds and a scan rate of 200 Hz. A pre-stimulus recording was performed for 0.5 seconds to obtain the un-stimulated intensities baseline. The stimulatory waveform was followed by 0.5 seconds of post-stimulation recording to examine the relaxation to the resting state.
Data was analyzed and reported as normalized ratios of emission intensities measured in the 460 nm and 580 nm channels. […]

[1] = Human liver microsome assay; format: in vitro ADME; conditions: 1 uM substrate, 0.5 mg/mL liver microsome, 2 mM NADPH, 37° C., referenced against time zero control
Procedure: Human Liver Microsome Assay Protocol
Liver microsomal stability data were generated as follows. Substrates were incubated at 37° C. and shaken for 30 minutes in a phosphate buffered solution with human liver microsomes and the cofactor NADPH. A time zero control was similarly prepared, however with NADPH excluded. The final incubation concentrations were 1 uM substrate (0.2% DMSO), 0.5 mg/mL liver microsome, 2 mM NADPH, and 0.1 M phosphate. Reactions were quenched and proteins precipitated with the addition of 2 volume equivalents of ice cold acetonitrile containing an internal standard. Following a centrifugation step, aliquots from the quenched incubations were further diluted with 4 volume equivalents of a 50% aqueous methanol solution and then subjected to LC/MS/MS analysis for quantitation of parent substrate. Microsome stability values were calculated as the percent of substrate remaining after 30 minutes referenced against the time zero control.

human Nav1.8, sequence (Q9Y5Y9 whole entry): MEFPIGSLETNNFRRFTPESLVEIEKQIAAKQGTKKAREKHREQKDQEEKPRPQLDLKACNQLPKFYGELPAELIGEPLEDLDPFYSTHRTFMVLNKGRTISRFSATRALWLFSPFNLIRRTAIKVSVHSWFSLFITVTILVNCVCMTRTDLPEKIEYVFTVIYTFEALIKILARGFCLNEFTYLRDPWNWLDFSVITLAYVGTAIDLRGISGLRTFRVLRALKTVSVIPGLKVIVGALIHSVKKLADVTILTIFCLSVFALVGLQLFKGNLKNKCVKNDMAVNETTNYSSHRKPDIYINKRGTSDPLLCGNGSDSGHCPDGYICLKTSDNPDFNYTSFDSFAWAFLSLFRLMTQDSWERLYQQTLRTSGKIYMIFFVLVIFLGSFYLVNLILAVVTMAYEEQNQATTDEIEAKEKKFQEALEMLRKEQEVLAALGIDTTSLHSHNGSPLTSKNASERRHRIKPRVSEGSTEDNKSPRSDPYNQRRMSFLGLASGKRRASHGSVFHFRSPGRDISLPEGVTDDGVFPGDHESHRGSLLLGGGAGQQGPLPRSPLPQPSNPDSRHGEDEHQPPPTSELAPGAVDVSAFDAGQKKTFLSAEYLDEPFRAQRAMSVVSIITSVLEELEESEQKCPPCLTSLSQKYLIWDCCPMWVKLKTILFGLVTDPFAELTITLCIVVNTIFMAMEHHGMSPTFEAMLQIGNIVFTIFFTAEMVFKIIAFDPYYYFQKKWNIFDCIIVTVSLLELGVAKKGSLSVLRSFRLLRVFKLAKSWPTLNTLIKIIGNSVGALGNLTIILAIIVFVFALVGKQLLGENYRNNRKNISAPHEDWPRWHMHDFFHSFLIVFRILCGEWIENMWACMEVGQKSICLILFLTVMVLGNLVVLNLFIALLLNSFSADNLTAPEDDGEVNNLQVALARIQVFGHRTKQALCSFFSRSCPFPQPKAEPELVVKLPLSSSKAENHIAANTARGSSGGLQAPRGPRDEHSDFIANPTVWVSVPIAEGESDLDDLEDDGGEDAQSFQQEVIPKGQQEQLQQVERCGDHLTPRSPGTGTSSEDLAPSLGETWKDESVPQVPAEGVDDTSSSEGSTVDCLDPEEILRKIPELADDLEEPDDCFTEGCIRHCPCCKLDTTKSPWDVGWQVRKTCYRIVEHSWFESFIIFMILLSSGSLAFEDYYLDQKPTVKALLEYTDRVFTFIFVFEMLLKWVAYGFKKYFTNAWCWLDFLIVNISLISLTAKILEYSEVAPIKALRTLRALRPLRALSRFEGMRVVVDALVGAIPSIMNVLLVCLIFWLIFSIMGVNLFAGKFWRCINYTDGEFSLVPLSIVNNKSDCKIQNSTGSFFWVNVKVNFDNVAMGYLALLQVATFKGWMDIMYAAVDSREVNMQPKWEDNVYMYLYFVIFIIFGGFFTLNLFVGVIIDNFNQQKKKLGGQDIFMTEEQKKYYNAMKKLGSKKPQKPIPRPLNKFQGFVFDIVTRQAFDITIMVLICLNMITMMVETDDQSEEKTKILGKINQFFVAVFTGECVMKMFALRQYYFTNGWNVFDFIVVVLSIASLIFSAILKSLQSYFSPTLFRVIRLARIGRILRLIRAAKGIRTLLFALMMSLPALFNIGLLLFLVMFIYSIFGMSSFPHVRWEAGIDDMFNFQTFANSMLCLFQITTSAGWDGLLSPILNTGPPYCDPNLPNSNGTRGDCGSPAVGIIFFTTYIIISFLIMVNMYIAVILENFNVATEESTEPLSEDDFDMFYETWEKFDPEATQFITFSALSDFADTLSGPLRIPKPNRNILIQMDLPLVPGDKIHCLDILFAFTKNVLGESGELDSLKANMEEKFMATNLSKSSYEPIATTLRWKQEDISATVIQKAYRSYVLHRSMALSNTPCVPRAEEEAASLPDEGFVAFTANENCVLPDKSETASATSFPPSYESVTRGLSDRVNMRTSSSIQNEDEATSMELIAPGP

Row | Compound | IC50 (human Nav1.8) | HLM: percent unchanged after 30 min [1]
1 | NS(=O)(=O)c1cccc(NC(=O)c2ccc(C(F)(F)F)cc2Oc2ccc(F)cc2F)c1 [Compound 2, 2-(2,4-difluorophenoxy)-N-(3-sulfamoylphenyl)-4-(trifluoromethyl)benzamide] | 22 nM | 97%
2 | N#Cc1ccc(C(=O)Nc2cccc(S(N)(=O)=O)c2)c(Oc2ccc(F)cc2Cl)c1 [Compound 4, 2-(2-chloro-4-fluoro-phenoxy)-4-cyano-N-(3-sulfamoylphenyl)benzamide] | 27 nM | 118%
3 | NS(=O)(=O)c1cccc(NC(=O)c2cc(Cl)ccc2Oc2ccc(F)cc2)c1 [Compound 5, 5-chloro-2-(4-fluorophenoxy)-N-(3-sulfamoylphenyl)benzamide] | 21 nM | 107%
4 | Cc1cc(F)ccc1Oc1cc(C#N)ccc1C(=O)Nc1cccc(S(N)(=O)=O)c1 [Compound 9, 4-cyano-2-(4-fluoro-2-methyl-phenoxy)-N-(3-sulfamoylphenyl)benzamide] | 28 nM | 102%
5 | COc1cc(F)ccc1Oc1cc(C#N)ccc1C(=O)Nc1cccc(S(N)(=O)=O)c1 [Compound 10, 4-cyano-2-(4-fluoro-2-methoxyphenoxy)-N-(3-sulfamoylphenyl)benzamide] | 20 nM | 86%
6 | N#Cc1ccc(Oc2ccc(F)cc2Cl)c(C(=O)Nc2cccc(S(N)(=O)=O)c2)c1 [Compound 11, 2-(2-chloro-4-fluorophenoxy)-5-cyano-N-(3-sulfamoylphenyl)benzamide] | 24 nM | 89%
7 | COc1ccc(Oc2cc(Cl)c(Cl)cc2C(=O)Nc2cccc(S(N)(=O)=O)c2)c(OC)c1 [Compound 76, 4,5-dichloro-2-(2,4-dimethoxyphenoxy)-N-(3-sulfamoylphenyl)benzamide] |  | 58%
8 | CC(C)Oc1ccc(Oc2cc(Cl)ccc2C(=O)Nc2cccc(S(N)(=O)=O)c2)cc1 [Compound 87, 4-chloro-2-(4-isopropoxyphenoxy)-N-(3-sulfamoylphenyl)benzamide] | 29 nM | 

The next lines start with the values.

Row | IC50 (human Nav1.8) | HLM: percent unchanged after 30 min [1] | Compound
9 | 14 nM | 83% | NS(=O)(=O)c1cccc(NC(=O)c2ccc(C(F)(F)F)cc2Oc2ccc(F)cc2)c1 [Compound 1, 2-(4-fluorophenoxy)-N-(3-sulfamoylphenyl)-4-(trifluoromethyl)benzamide]
10 | 16 nM | 117% | NS(=O)(=O)c1cccc(NC(=O)c2cc(C(F)(F)F)ccc2Oc2ccc(F)cc2)c1 [Compound 3, 2-(4-fluorophenoxy)-N-(3-sulfamoylphenyl)-5-(trifluoromethyl)benzamide]
11 | 13 nM | 106% | NS(=O)(=O)c1cccc(NC(=O)c2cc(C(F)(F)F)ccc2Oc2ccc(F)cc2F)c1 [Compound 6, 2-(2,4-difluorophenoxy)-N-(3-sulfamoylphenyl)-5-(trifluoromethyl)benzamide]
12 | 12 nM | 78% | Cc1cc(C(=O)Nc2cccc(S(N)(=O)=O)c2)c(Oc2ccc(F)cc2)cc1Cl [Compound 7, 4-chloro-2-(4-fluorophenoxy)-5-methyl-N-(3-sulfamoylphenyl)benzamide]
13 | 10 nM | 108% | NS(=O)(=O)c1cccc(NC(=O)c2ccc(Cl)cc2Oc2ccc(F)cc2Cl)c1 [Compound 8, 4-chloro-2-(2-chloro-4-fluorophenoxy)-N-(3-sulfamoylphenyl)benzamide]
14 | 15 nM |  | COc1cc(Cl)ccc1Oc1cc(Cl)ccc1C(=O)Nc1cccc(S(N)(=O)=O)c1 [Compound 85, 4-chloro-2-(4-chloro-2-methoxyphenoxy)-N-(3-sulfamoylphenyl)benzamide]
15 | 18 nM |  | COc1ccc(Oc2cc(C(F)(F)F)cc(C3CC3)c2C(=O)Nc2cccc(S(N)(=O)=O)c2)cc1F [Compound 100, 2-cyclopropyl-6-(3-fluoro-4-methoxyphenoxy)-N-(3-sulfamoylphenyl)-4-(trifluoromethyl)benzamide]
